Experimental findings from patent US6133292A, “Diaryl-5-alkyl-5-methyl-2-(5H)-furanones as selective cyclooxygenase-2-inhibitors” (Merck Frosst Canada & Co., priority 1998, dated 2000) are described below.

The data set in a line: Pharmacokinetics in rats (half-life). To be noted: rat, blood, read-out: T 1/2 in Rats (converted). The data set is classed as in vivo, rat (male Sprague Dawley). From the text: Per Os Pharmacokinetics in Rats--Procedure:
The animals are housed, fed and cared for according to the Guidelines of the Canadian Council on Animal Care. Male Sprague Dawley rats (325-375 g) are fasted overnight prior to each PO blood level study. The rats are placed in the restrainer one at a time and the box firmly secured. The zero blood sample is obtained by nicking a small (1 mm or less) piece off the tip of the tail. The tail is then stroked with a firm but gentle motion from the top to the bottom to milk out the blood. Approximately 1 mL of blood is collected into a heparirnized vacutainer tube.
Compounds are prepared as required, in a standard dosing volume of 10 mL/kg, and administered orally by passing a 16 gauge, 3" gavaging needle into the stomach. Subsequent bleeds are taken in the same manner as the zero bleed except that there is no need to nick the tail again. The tail is cleaned with a piece of gauze and milked/stroked as described above into the appropriately labelled tubes.
Immediately after sampling, blood is centrifuged, separated, put into clearly marked vials and stored in a freezer until analysed. Typical time points for determination of rat blood levels after PO dosing are 0, 15 min, 30 min, 1 h, 2 h, 4 h, and 6 h.
After the 4 hr time point bleed, food is provided to the rats ad libitum. Water is provided at all times during the study.
The following vehicles may be used in PO rat blood level determinations:
Compounds for PO blood levels can be in suspension form. For better dissolution, the solution can be placed in a sonicator for approximately 5 minutes.
For analysis, aliquots are diluted with an equal volume of acetonitrile and centrifuged to remove protein precipitate. The supernatant is injected directly onto a C-18 HPLC column with UV detection. Quantitation is done relative to a clean blood sample spiked with a known quantity of drug.
Intravenous Pharmacokinetics in Rats--Procedure
The animals are housed, fed and cared for according to the Guidelines of the Canadian Council on Animal Care. Male Sprague Dawley (325-375 g) rats are placed in plastic shoe box cages with a suspended floor, cage top, water bottle and food. The compound is prepared as required, in a standard dosing volume of 1 mL/kg.
Rats are bled for the zero blood sample and dosed under CO2 sedation. The rats, one at a time, are placed in a primed CO2 chamber and taken out as soon as they have lost their righting reflex. The rat is then placed on a restraining board, a nose cone with CO2 delivery is placed over the muzzle and the rat restrained to the board with elastics. With the use of forceps and scissors, the jugular vein is exposed and the zero sample taken, followed by a measured dose of compound which is injected into the jugular vein. Light digital pressure is applied to the injection site, and the nose cone is removed. The time is noted. This constitutes the zero time point.
The 5 min bleed is taken by nicking a piece (1-2 mm) off the tip of the tail. The tail is then stroked with a firm but gentle motion from the top of the tail to the bottom to milk the blood out of the tail. Approximately 1 mL of blood is collected into a heparinized collection vial. Subsequent bleeds are taken in the same fashion, except that there is no need to nick the tail again. The tail is cleaned with a piece of gauze and bled, as described above, into the appropriate labelled tubes. Typical time points for determination of rat blood levels after I.V. dosing are either a) 0, 5 min, 15 min, 30 min, 1 h, 2 h, 6 h, or b) 0, 5 min, 30 min, 1 h, 2 h, 4 h, 6 h.
The following vehicles may be used in IV rat blood level determinations:
DMSO (dimethylsulfoxide): Restricted to a dose volume of 0.1 mL per animal
PEG 200: Not more than 60% mixed with 40% sterile water --1 mL/kg
With Dextrose, either sodium bicarbonate or sodium carbonate can be added if the solution is cloudy. […]
In the case of `CC[C@@]1(C)OC(=O)C(c2ccc(F)c(F)c2)=C1c1ccc(S(C)(=O)=O)cc1` [h, (5R)-3-(3,4-difluorophenyl)-5-ethyl-5-methyl-4-[4-(methylsulfonyl)phenyl] -2,5-dihydro-2-furanone], the half-life is 3.6 h.

Take `CC1(C)OC(=O)C(c2ccc(F)cc2)=C1c1ccc(S(C)(=O)=O)cc1` [Compound T3-1, 3-(4-fluorophenyl)-5,5-dimethyl-4-[4-(methylsulfonyl)phenyl]-2,5-dihydro-2-furanone, reference compound]: the half-life was more than 24 h. As to `CC[C@]1(C)OC(=O)C(c2ccc(F)c(F)c2)=C1c1ccc(S(C)(=O)=O)cc1` [i, (5S)-3-(3,4-difluorophenyl)-5-ethyl-5-methyl-4-[4-(methylsulfonyl)phenyl] -2,5-dihydro-2-furanone], the half-life is 4.8 h. In the case of `CCCC1(C)OC(=O)C(c2ccc(F)cc2)=C1c1ccc(S(C)(=O)=O)cc1` (centres unmarked) [n, 3-(4-fluorophenyl)-5-methyl-4-[4-(methylsulfonyl)phenyl]-5-propyl-2,5-dihydro-2-furanone], the half-life is approximately 1 h. Take `CCC1(C)OC(=O)C(c2ccc(F)cc2)=C1c1ccc(S(C)(=O)=O)cc1` (centres unmarked) [c, 5-ethyl-3-(4-fluorophenyl)-5-methyl-4-[4-(methylsulfonyl)phenyl]-2,5-dihydro-2-furanone]: the half-life was 3 h.
